# Assay results from ChEMBL document CHEMBL5244255, “An insight on medicinal attributes of 1,2,4-triazoles” (Eur J Med Chem, 2020).
# Assays:
# [1] = biological target: DNA gyrase (Escherichia coli, UniProt P0AES4+P0AES6); assay: Inhibition of Escherichia coli DNA gyrase supercoiling activity by Microplate Assay kit method; format: protein-complex assay
# [2] = system: HCT-116; assay: Anticancer activity against human HCT-116 cells assessed as cell growth inhibition
# [3] = biological target: DNA topoisomerase II (Homo sapiens, UniProt P11388+Q02880); assay: Inhibition of human Topoisomerase 2 incubated for 30 mins by ELISA assay; format: protein assay
# [4] = system: Mus musculus; assay: Anticonvulsant activity in ip dosed mouse; format: functional
# [5] = Protection index, ratio of TD50 for neurotoxicity in ip dosed mouse to ED50 for anticonvulsant activity in ip dosed mouse; format: toxicity, organism-based; details: in vivo, read-out: Ratio TD50/ED50
# [6] = system: Rattus norvegicus; assay: Antiinflammatory activity in rat assessed as reduction in xylene induced edema at 10 mg/kg, po by CPE test relative to control; format: functional; parameters: scale not given: the % may be the effect or the level left
# [7] = system: Acinetobacter haemolyticus; assay: Antibacterial activity against Acinetobacter haemolyticus ATCC 19002 assessed as bacterial growth inhibition by double micro dilution method; format: functional
# [8] = system: Pseudomonas aeruginosa; assay: Antibacterial activity against Pseudomonas aeruginosa ATCC 27853 assessed as bacterial growth inhibition by double micro dilution method; format: functional
# [9] = system: Enterococcus faecalis; assay: Antibacterial activity against Enterococcus faecalis ATCC 29212 assessed as bacterial growth inhibition by double micro dilution method; format: functional
# [10] = system: Staphylococcus aureus; assay: Antibacterial activity against Staphylococcus aureus ATCC 25923 assessed as bacterial growth inhibition by double micro dilution method; format: functional
# [11] = system: Klebsiella pneumoniae; assay: Antibacterial activity against Klebsiella pneumoniae ATCC 13883 assessed as bacterial growth inhibition by double micro dilution method; format: functional
# [12] = system: Escherichia coli; assay: Antibacterial activity against Escherichia coli ATCC 25922 assessed as bacterial growth inhibition by double micro dilution method; format: functional
# [13] = Inhibition of 5 alpha reductase (unknown origin)
# [14] = system: Plasmodium falciparum; assay: Antimalarial activity against Chloroquine resistant Plasmodium falciparum W2; format: functional, organism-based
# [15] = system: Mycobacterium tuberculosis; assay: Antimycobacterial activity against Mycobacterium tuberculosis H37Rv measured after 7 days; format: functional; details: 168 h, time 7 day
# [16] = system: Plasmodium falciparum; assay: Antimalarial activity against Plasmodium falciparum; format: functional, organism-based; details: Plasmodium falciparum; read-out: IC50
# [17] = system: Plasmodium falciparum; assay: microbe, parasite or virus in culture
# [18] = system: MCF7; assay: Anticancer activity against human MCF7 cells assessed a cell growth inhibition incubated for 48 hrs by SRB assay; format: functional, cell-based; details: MCF7, 48 h
# [19] = biological target: Epidermal growth factor receptor (Homo sapiens, UniProt P00533); assay: Inhibition of EGFR (unknown origin) […] insect sf9 cells incubated for 1 hrs in presence of ATP
# Sequence of Epidermal growth factor receptor (P00533 whole entry): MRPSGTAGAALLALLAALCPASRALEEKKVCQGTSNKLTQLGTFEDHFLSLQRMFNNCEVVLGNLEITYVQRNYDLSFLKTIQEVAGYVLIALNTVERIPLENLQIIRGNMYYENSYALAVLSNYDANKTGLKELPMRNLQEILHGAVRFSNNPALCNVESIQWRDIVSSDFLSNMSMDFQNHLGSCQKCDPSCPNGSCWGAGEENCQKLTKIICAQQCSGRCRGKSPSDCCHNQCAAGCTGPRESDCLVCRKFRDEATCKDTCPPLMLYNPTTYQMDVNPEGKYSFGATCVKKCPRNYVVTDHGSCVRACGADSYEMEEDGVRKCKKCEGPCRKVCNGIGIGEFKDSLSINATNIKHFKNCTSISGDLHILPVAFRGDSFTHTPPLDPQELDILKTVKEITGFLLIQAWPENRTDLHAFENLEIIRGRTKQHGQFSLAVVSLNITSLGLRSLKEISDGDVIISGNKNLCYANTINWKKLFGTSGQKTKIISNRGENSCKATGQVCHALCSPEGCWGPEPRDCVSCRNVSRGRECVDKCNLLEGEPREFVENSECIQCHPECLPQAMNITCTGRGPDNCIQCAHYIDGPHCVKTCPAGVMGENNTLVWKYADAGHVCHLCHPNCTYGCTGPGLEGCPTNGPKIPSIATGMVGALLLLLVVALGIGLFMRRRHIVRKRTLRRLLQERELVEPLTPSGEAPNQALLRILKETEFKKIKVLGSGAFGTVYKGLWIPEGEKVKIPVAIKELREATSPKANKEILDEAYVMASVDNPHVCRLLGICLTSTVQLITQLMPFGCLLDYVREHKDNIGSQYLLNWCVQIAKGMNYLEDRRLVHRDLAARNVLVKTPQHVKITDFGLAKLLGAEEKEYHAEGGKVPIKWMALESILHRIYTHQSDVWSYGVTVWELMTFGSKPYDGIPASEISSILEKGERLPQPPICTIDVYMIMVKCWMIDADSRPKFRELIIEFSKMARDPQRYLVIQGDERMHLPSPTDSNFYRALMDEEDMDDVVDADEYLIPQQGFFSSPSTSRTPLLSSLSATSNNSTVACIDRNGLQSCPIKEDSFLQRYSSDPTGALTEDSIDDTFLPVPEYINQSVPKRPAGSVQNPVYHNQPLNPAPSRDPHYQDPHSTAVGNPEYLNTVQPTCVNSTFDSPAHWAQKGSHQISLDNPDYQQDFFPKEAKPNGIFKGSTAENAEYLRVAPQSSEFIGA
# [20] = Inhibition of BRAF V600E mutant (unknown origin) incubated for 25 mins in presence of ATP by ELISA assay; parameters: species or system Homo sapiens
# [21] = biological target: Tubulin; assay: Inhibition of tubulin (unknown origin); format: protein-complex assay, Homo sapiens
# [22] = system: Xanthomonas oryzae pv. oryzae; assay: Antibacterial activity against Xanthomonas oryzae pv. oryzae assessed as bacterial growth inhibition by turbidimetric method; format: functional, organism-based
# [23] = system: Mycobacterium tuberculosis; assay: Antimycobacterial activity against Mycobacterium tuberculosis H37Rv by test tube dilution technique; format: functional
# [24] = system: Staphylococcus aureus; assay: Antibacterial activity against Staphylococcus aureus 6538 assessed as bacterial growth inhibition incubated for 24 hrs; format: functional
# [25] = system: Staphylococcus aureus; assay: Antibacterial activity against Methicillin-resistant Staphylococcus aureus assessed as bacterial growth inhibition incubated for 24 hrs; format: functional
# [26] = system: Rattus norvegicus; assay: Antiinflammatory activity in rat assessed as reduction in carrageenan induced edema at 10 mg/kg, po measured after 4 to 5 hrs relative to control; format: functional; parameters: scale not given: the % may be the effect or the level left; details: time 4-5 hrs
# [27] = system: Staphylococcus aureus; assay: Antibacterial activity against Staphylococcus aureus assessed as bacterial growth inhibition incubated for 16 hrs; format: functional
# [28] = system: Candida albicans; assay: Antifungal activity against Candida albicans assessed as fungal growth inhibition incubated for 16 hrs; format: functional
# [29] = organism: Rattus norvegicus; assay: Bronchodilator activity in Sprague-Dawley rat; format: functional, organism-based
# [30] = system: Rattus norvegicus; assay: Antiinflammatory activity in rat assessed as reduction in edema at 17 mg/kg, ip measured after 5 hrs relative to control; format: functional; parameters: scale not given: the % may be the effect or the level left
smiles,measurement,setting,value
CCn1cc(-c2nc(/N=C/c3ccc(F)cc3)n[nH]2)c(=O)c2ccc(C)nc21,IC50,[1],9.75 µM
O=c1c2c3c(sc2n2c(CN4CCN(c5ccc(Cl)cc5)CC4)nnc2n1Cc1ccccc1)CCCC3,IC50,[2],6.56 µM
O=C(CSc1nc2ccccc2n2cnnc12)Nc1ccc(S(=O)(=O)Nc2nccs2)cc1,IC50,[3],1.1 µM
O=c1[nH]nc2n1-c1ccc(OCc3ccc(F)cc3)cc1OCC2,ED50,[4],26.3 mg/kg
same,selectivity ratio,[5],12.6
Fc1cc(F)cc(-c2nn3c(CN4c5ccccc5Sc5ccccc54)nnc3s2)c1,Activity,[6],82.24%
CCn1c(CN2CCN(c3ccccc3)CC2)nn(CN2CCN(c3cc4c(cc3F)c(=O)c(C(=O)O)cn4C3CC3)CC2)c1=S,MIC,[7],0.125 µg/mL
same,MIC,[8],0.125 µg/mL
same,MIC,[9],0.125 µg/mL
same,MIC,[10],0.125 µg/mL
same,MIC,[11],0.125 µg/mL
same,MIC,[12],0.125 µg/mL
CC(C)(C#N)c1cc(Cn2cncn2)cc(C(C)(C)C#N)c1,ED50,[13],1.09 µM
Cc1cc(Nc2ccc(Cl)c(Cl)c2)n2nc(C(F)(F)F)nc2n1,IC50,[14],0.023 µM
O=[N+]([O-])c1ncn(CCCCNS(=O)(=O)c2scc(Cl)c2Cl)n1,MIC,[15],1.56 µg/mL
C=C[C@H]1CN2CC[C@H]1C[C@H]2[C@H](O)c1ccnc2ccc(OC)cc12 [QUININE],IC50,[16],0.286 µM
same,IC50,[17],0.268 µg/mL
CC/C(=C(\c1ccccc1)c1ccc(OCCN(C)C)cc1)c1ccccc1 [TAMOXIFEN],IC50,[18],8.38 µg/mL
CCn1cc(-c2nc(/N=C/c3ccc(Br)cc3)n[nH]2)c(=O)c2cc(Br)c(C)nc21,IC50,[1],6.22 µM
COc1ccccc1-n1c(S)nnc1-c1cc(S(N)(=O)=O)c(Cl)cc1N,IC50,[17],0.025 µg/mL
Fc1cc(Cl)cc(-c2nn3c(CN4c5ccccc5Sc5ccccc54)nnc3s2)c1,Activity,[6],83.06%
COc1ccc(C(=O)n2nc(-c3ccncc3)nc2N)cc1,IC50,[19],4.6 µM
same,IC50,[20],1.8 µM
same,IC50,[21],0.872 µM
CCOC(=O)c1nc(Sc2nnc3c(Cl)cccn23)c2ccccc2n1,EC50,[22],7.2 µg/mL
c1cncc(-c2nn3c(COc4cnccn4)nnc3s2)c1,MIC,[23],0.4 µg/mL
Nc1cc(Cl)c(S(N)(=O)=O)cc1-c1nnc(S)n1-c1ccccc1,IC50,[17],0.023 µg/mL
CSc1nc(Cl)cc(Sc2nnc(-c3cc(C(F)(F)F)cc(C(F)(F)F)c3)[nH]2)n1,MIC,[24],1.8 µM
same,MIC,[25],0.75 µg/mL
O=C(CSc1nnc(COc2ccccc2)n1-c1ccc(Cl)cc1)Nc1nc2ccccc2s1,Activity,[26],84.43%
O=C(NCc1nnc(S)n1/N=C/c1ccc([N+](=O)[O-])cc1)c1ccccc1,MIC,[27],3.12 µg/mL
same,MIC,[28],3.12 µg/mL
Cc1nc2[nH]cc(-c3n[nH]c(=S)n3-c3ccccc3)c(=O)n2n1,EC50,[29],18.6 µM
FC(F)(F)c1cc(-c2nnc(Sc3cc(Cl)nc(Sc4ccccc4)n3)[nH]2)cc(C(F)(F)F)c1,MIC,[24],1.8 µM
same,MIC,[25],0.43 µg/mL
O=[N+]([O-])c1ncn(CCCCNS(=O)(=O)c2sccc2Cl)n1,MIC,[15],3.13 µg/mL
O=C(CCSc1nnc2n(Cc3ccccc3)c(=O)c3c4c(sc3n12)CCCC4)N1CCN(c2ccccc2)CC1,IC50,[2],6.12 µM
COc1ccc(-c2cc(-c3nnc(SCC(=O)Nc4ccc(/C(C)=N/O)cc4)n3-c3ccccc3)c3ccccc3n2)cc1,Activity,[30],100%
COc1ccc(/C=N/n2c(S)nnc2CNC(=O)c2ccc(C)cc2)cc1OC,MIC,[27],3.12 µg/mL
same,MIC,[28],3.12 µg/mL
